Measured values as given in ChEMBL document CHEMBL1275576, “In vitro activity of tomopenem (CS-023/RO4908463) against anaerobic bacteria” (Antimicrob Agents Chemother, 2009).

What was measured:
Format in all cases: functional
[1] = tested on: Bacteroides fragilis; assay: Antimicrobial activity against carbapenemase-producing Bacteroides fragilis GAI 30079 by agar dilution method in presence of 5% laked sheep blood
[2] = tested on: Bacteroides fragilis; assay: Antimicrobial activity against carbapenemase-producing Bacteroides fragilis GAI 30144 by agar dilution method in presence of 5% laked sheep blood
[3] = tested on: Phocaeicola vulgatus; assay: Antimicrobial activity against Bacteroides vulgatus GAI 0673 by agar dilution method in presence of 5% laked sheep blood
[4] = Antimicrobial activity against Parabacteroides distasonis ATCC 8503 by agar dilution method in presence of 5% laked sheep blood
[5] = tested on: Bacteroides ovatus; assay: Antimicrobial activity against Bacteroides ovatus ATCC 8483 by agar dilution method in presence of 5% laked sheep blood
[6] = tested on: Bacteroides thetaiotaomicron; assay: Antimicrobial activity against Bacteroides thetaiotaomicron ATCC 29741 by agar dilution method in presence of 5% laked sheep blood
[7] = tested on: Bacteroides eggerthii DSM 20697; assay: Antimicrobial activity against Bacteroides eggerthii ATCC 27754 by agar dilution method in presence of 5% laked sheep blood
[8] = tested on: Campylobacter ureolyticus; assay: Antimicrobial activity against Bacteroides ureolyticus NCTC 10941 by agar dilution method in presence of 5% laked sheep blood
[9] = tested on: Campylobacter gracilis; assay: Antimicrobial activity against Campylobacter gracilis JCM 8538 by agar dilution method in presence of 5% laked sheep blood
[10] = tested on: Sutterella wadsworthensis; assay: Antimicrobial activity against Sutterella wadsworthensis ATCC 51579 by agar dilution method in presence of 5% laked sheep blood
[11] = tested on: Prevotella bivia; assay: Antimicrobial activity against Prevotella bivia ATCC 29303 by agar dilution method in presence of 5% laked sheep blood; settings: DSM 20514
[12] = tested on: Prevotella buccae; assay: Antimicrobial activity against Prevotella buccae ATCC 33574 by agar dilution method in presence of 5% laked sheep blood; settings: Segatella buccae
[13] = tested on: Prevotella corporis; assay: Antimicrobial activity against Prevotella corporis GAI 91000 by agar dilution method in presence of 5% laked sheep blood
[14] = tested on: Bacteroides heparinolyticus; assay: Antimicrobial activity against Prevotella heparinolytica ATCC 35895 by agar dilution method in presence of 5% laked sheep blood
[15] = tested on: Prevotella intermedia; assay: Antimicrobial activity against Prevotella intermedia ATCC 25611 by agar dilution method in presence of 5% laked sheep blood
[16] = tested on: Hoylesella oralis; assay: Antimicrobial activity against Prevotella oralis ATCC 33269 by agar dilution method in presence of 5% laked sheep blood
[17] = tested on: Porphyromonas gingivalis; assay: Antimicrobial activity against Porphyromonas gingivalis ATCC 33277 by agar dilution method in presence of 5% laked sheep blood
[18] = tested on: Fusobacterium varium; assay: Antimicrobial activity against Fusobacterium varium ATCC 8501 by agar dilution method in presence of 5% laked sheep blood
[19] = tested on: Fusobacterium necrophorum; assay: Antimicrobial activity against Fusobacterium necrophorum ATCC 25286 by agar dilution method in presence of 5% laked sheep blood
[20] = tested on: Bilophila wadsworthia; assay: Antimicrobial activity against Bilophila wadsworthia WAL 7959 by agar dilution method in presence of 5% laked sheep blood
[21] = tested on: Capnocytophaga ochracea; assay: Antimicrobial activity against Capnocytophaga ochracea GAI 5586 by agar dilution method in presence of 5% laked sheep blood
[22] = tested on: Veillonella parvula; assay: Antimicrobial activity against Veillonella parvula ATCC 10790 by agar dilution method in presence of 5% laked sheep blood
[23] = tested on: Anaerococcus prevotii; assay: Antimicrobial activity against Anaerococcus prevotii ATCC 9321 by agar dilution method in presence of 5% laked sheep blood
[24] = Antimicrobial activity against Finegoldia magna ATCC 29328 by agar dilution method in presence of 5% laked sheep blood
[25] = tested on: Parvimonas micra; assay: Antimicrobial activity against Parvimonas micra VPI 5464-1 by agar dilution method in presence of 5% laked sheep blood
[26] = tested on: Peptoniphilus indolicus; assay: Antimicrobial activity against Peptoniphilus indolicus GAI 0915 by agar dilution method in presence of 5% laked sheep blood
[27] = tested on: Peptostreptococcus anaerobius; assay: Antimicrobial activity against Peptostreptococcus anaerobius ATCC 27337 by agar dilution method in presence of 5% laked sheep blood
[28] = tested on: Staphylococcus saccharolyticus; assay: Antimicrobial activity against Staphylococcus saccharolyticus ATCC 14953 by agar dilution method in presence of 5% laked sheep blood
[29] = tested on: Streptococcus constellatus; assay: Antimicrobial activity against Streptococcus constellatus ATCC 27923 by agar dilution method in presence of 5% laked sheep blood
[30] = tested on: Enterocloster clostridioformis; assay: Antimicrobial activity against Clostridium clostridioforme NCTC 11224 by agar dilution method in presence of 5% laked sheep blood
[31] = tested on: Clostridioides difficile; assay: Antimicrobial activity against Clostridium difficile GAI 10029 by agar dilution method in presence of 5% laked sheep blood
[32] = tested on: Clostridium septicum; assay: Antimicrobial activity against Clostridium septicum ATCC 12464 by agar dilution method in presence of 5% laked sheep blood
[33] = tested on: Thomasclavelia ramosa; assay: Antimicrobial activity against Clostridium ramosum ATCC 25582 by agar dilution method in presence of 5% laked sheep blood
[34] = tested on: Schaalia odontolytica; assay: Antimicrobial activity against Actinomyces odontolyticus GAI 91002 by agar dilution method in presence of 5% laked sheep blood
[35] = tested on: Bifidobacterium bifidum; assay: Antimicrobial activity against Bifidobacterium bifidum JCM 1255 by agar dilution method in presence of 5% laked sheep blood
[36] = tested on: Cutibacterium acnes; assay: Antimicrobial activity against Propionibacterium acnes ATCC 11828 by agar dilution method in presence of 5% laked sheep blood
[37] = tested on: Propionibacterium granulosum; assay: Antimicrobial activity against Propionibacterium granulosum ATCC 25564 by agar dilution method in presence of 5% laked sheep blood; settings: Cutibacterium granulosum
[38] = tested on: Lactobacillus acidophilus; assay: Antimicrobial activity against Lactobacillus acidophilus JCM 1132 by agar dilution method in presence of 5% laked sheep blood
[39] = tested on: Lacticaseibacillus casei; assay: Antimicrobial activity against Lactobacillus casei subsp. casei JCM 1134 by agar dilution method in presence of 5% laked sheep blood
[40] = tested on: Limosilactobacillus fermentum; assay: Antimicrobial activity against Lactobacillus fermentum JCM 1173 by agar dilution method in presence of 5% laked sheep blood
[41] = tested on: Lactiplantibacillus plantarum; assay: Antimicrobial activity against Lactobacillus plantarum JCM 1149 by agar dilution method in presence of 5% laked sheep blood
[42] = tested on: Lactobacillus salivarius; assay: Antimicrobial activity against Lactobacillus salivarius subsp. salivarius JCM 1231 by agar dilution method in presence of 5% laked sheep blood; settings: Ligilactobacillus salivarius
[43] = tested on: Bacteroides fragilis; assay: Antimicrobial activity against Bacteroides fragilis ATCC 25285 by agar dilution method in presence of 5% laked sheep blood; settings: NCTC 9343
[44] = tested on: Bacteroides fragilis; assay: Antimicrobial activity against Bacteroides fragilis NCTC 10581 by agar dilution method in presence of 5% laked sheep blood
[45] = tested on: Bacteroides fragilis; assay: Antimicrobial activity against Bacteroides fragilis GAI 0558 by agar dilution method in presence of 5% laked sheep blood
[46] = tested on: Bacteroides fragilis; assay: Antimicrobial activity against Bacteroides fragilis GAI 7955 by agar dilution method in presence of 5% laked sheep blood

Measured: MIC

C[C@@H](O)[C@H]1C(=O)N2C(C(=O)O)=C(S[C@@H]3CN[C@H](CNS(N)(=O)=O)C3)[C@H](C)[C@H]12 [DORIPENEM]
0.25 µg/mL: [3] | [7] | [10] | [12] | [23] | [24] | [30] | [34]
2 µg/mL: [46]
> 128 µg/mL: [1] | [2]
1 µg/mL: [33] | [36] | [39]
0.125 µg/mL: [9] | [13] | [21] | [25] | [35] | [38] | [41]
0.06 µg/mL: [8] | [14] | [15] | [16] | [20] | [22] | [28] | [32] | [40]
≤ 0.015 µg/mL: [17] | [19] | [26]
4 µg/mL: [31]
0.5 µg/mL: all other assays above

Cc1ncc([N+](=O)[O-])n1CCO [METRONIDAZOLE]
0.5 µg/mL: [7] | [9] | [12] | [26] | [31] | [43] | [45]
0.03 µg/mL: [17]
> 128 µg/mL: [28] | [29] | [36] | [37] | [38] | [39] | [40] | [41] | [42]
16 µg/mL: [34]
0.125 µg/mL: [13] | [16] | [19] | [27]
0.06 µg/mL: [14] | [20]
2 µg/mL: [5] | [8] | [11] | [22] | [23] | [33]
4 µg/mL: [35]
0.25 µg/mL: [3] | [18] | [46]
≤ 0.015 µg/mL: [30]
1 µg/mL: all other assays above
